Source: patent US20040082558A1, “Administration of estradiol metabolites for inhibition of drug-induced nephrotoxicity” (priority 2002, published 2004)

Columns and labels:
Format in all cases: in vivo, rat
[1] = tested on: PAN-nephropathic rats; experiment: Metabolic cage measurements (24-hour urine, intake, plasma) in PAN-nephropathic rats
Method: A total of thirty-five, male Sprague Dawley rats (approximately 290 grams) were used. Rats were housed in the University of Pittsburgh Medical Center animal care facility (temperature, 22° C.; light cycle, 12 hours; relative humidity, 55%). Animals were fed Pro Lab RMH 3000 rodent diet (PMI Nutrition Inc., St Louis, Mo.) and were given water ad libitum. Institutional guidelines for animal welfare were followed, and the University of Pittsburgh Institutional Animal Care and Use Committee approved experimental protocols.
Before initiating treatment, and 3, and 6 and 11 weeks into the treatments, animals were placed in metabolic cages and allowed to acclimatize for two days before conducting the 24-hour measurements of urine volume, food and water intake and urinary sodium, potassium, creatinine, and protein excretion. Tail vein blood samples were also taken for measurement of plasma sodium, potassium, albumin and creatinine. Plasma and urine samples were analyzed for sodium and potassium concentrations using a flame photometer (Model IL-943; Instrumentations Laboratory Inc., Lexington, Ma.) and for creatinine concentrations using a creatinine analyzer (Creatinine Analyzer 2, Beckman Instrument, Inc., Fullerton Calif., USA). Total urine proteins were measured by a spectrophotometric assay using bicinchoninic acid reagent (Pierce; Rockford, Ill.) and a modification of Lowry method. Lowry, O. H., et al., J. Biol. Chem. 193: 265 (1951), the disclosure of which is incorporated herein by reference.
(§1) After baseline metabolic parameters were measured, animals were randomly assigned to receive subcutaneous saline (3 ml/kg; Control group, n=9) or puromycin aminonucleoside (PAN) (75 mg/kg; drug-induced nephrotoxic animals, n=26). PAN is a drug widely used to produce drug-induced nephrotoxicity in laboratory animals. Grond, J., et al., Contributions to Nephrology 60:83 (1988), the disclosure of which is incorporated herein by reference. Injections of PAN (20 mg/kg) were repeated after 2, 4, 8 and 10 weeks of treatment. Three hours after the initial injections, control animals were implanted with osmotic minipumps (model 2ML4, Alza, Palo Alto, Calif.) containing vehicle (polyethylene glycol 400, 2.5 μl/hour), whereas PAN-treated animals were implanted with osmotic minipumps containing either vehicle (PAN group, n=13) or 2-hydroxyestradiol (10 μg/kg/hour, PAN+2OHE group, n=13). Assignment to the PAN and PAN+2OHE groups was random. Six animals in the PAN group and 2 animals in the PAN+2OHE group died during the treatment, and these animals were not used in the final data analysis.

[2] = tested on: PAN-nephropathic rats; experiment: Acute measurements of renal hemodynamics and excretory function at 12 weeks; conditions: 12 weeks of treatment
Method: as §1
At 12 weeks into treatment, animals were anesthetized with pentobarbital (45 mg/kg i.p.) and instrumented for measurements of renal hemodynamics and excretory function. Two polyethylene (PE)-50 catheters were inserted into left jugular vein for delivery of supplemental anesthetics and saline infusion (50 μl/min), respectively. Another PE-50 catheter was inserted into left carotid artery and connected to a blood-pressure analyzer (Micro-Med., Inc., Louisville, Ky.) for continuous measurement of blood pressure and heart rate. A PE-10 catheter was inserted into the left ureter to facilitate collection of urine, and a flow probe (Model 1RB; Transonic Systems, Inc., Ithaca, N.Y.) was placed on the left renal artery for determination of renal blood flow, which was used to calculate renal vascular resistance. Next, an infusion of ^14C-inulin (0.035 μCi/20 μl saline/min) was initiated and after 60 minutes, two 30-minute clearance periods were conducted. A mid-point blood sample (300 μl) was collected and plasma and urine ^14C-inulin radioactivity was measured. Renal clearance of ^14C-inulin was calculated as an estimate of glomerular filtration rate.

[3] = tested on: PAN-nephropathic rats; experiment: Plasma testosterone radioimmunoassay; conditions: 12 weeks of treatment, male rats
Method: An aliquot of mid-point blood sample drawn during the first clearance period was used for testosterone measurements. Plasma testosterone levels were determined by radioimmunoassay using a commercial kit provided by ICN Biomedicals, Inc. (Costa Mesa, Calif.) according to the protocol of the manufacturer.

[4] = tested on: proliferating cell nuclear antigen (PCNA); experiment: Glomerular immunohistochemical staining for PCNA, quantitative image analysis; conditions: 12 weeks of treatment, kidney sections
Method: (§2) Animals were killed by an overdose of anesthetic and kidneys were removed and weighed. One kidney was fixed in 10% formalin buffer and the second kidney was quick-frozen in liquid nitrogen and stored at −70° C. Kidney tissue samples were sectioned and processed into paraffin blocks for light microscopy. For labeling of collagen IV, renal cortical segments (5 μm) were incubated overnight at 4° C. with rabbit anti-mouse collagen IV antibody (dilution 1/500 ) obtained from Chemicon International Inc. (Temecula, Calif.). A primary monoclonal mouse antibody ( 1/200 dilution; Dako Corporation, Carpenteria, Calif.) was used to label proliferating cell nuclear antigen (PCNA). […] Nonspecific staining was assessed by replacing the primary antibody with phosphate buffered saline. […] Immunochemical staining for collagen IV and PCNA quantitatively was done with a SAMBA 4000 image analyzer (Image Products International, Chantilly, Va.) using specialized computer software (Immuno-Analysis, version 4.1, Microsoft, Richmond, Wash.), a color video camera and a Compaq computer. […] Ten high power fields (×400) were assessed for staining density or positively marked cells for ED-1. […] Staining intensity of positive areas was also assessed (mean optical density) and a mean quick score was then calculated (mean optical density×labeling index).

[5] = tested on: ED1 positive cells; experiment: Immunohistochemical staining for ED1 positive cells (macrophage infiltration) in glomeruli and interstitium; conditions: 12 weeks of treatment, kidney sections
Method: as §2

[6] = tested on: collagen IV; experiment: Glomerular immunohistochemical staining for collagen IV, quantitative image analysis; conditions: 12 weeks of treatment, kidney sections
Method: as §2

[7] = tested on: PAN-treated rats; experiment: Mortality during 12-week treatment of PAN-treated rats; conditions: n=13 per group
Method: as §1

CN(C)c1ncnc2c1ncn2[C@@H]1O[C@H](CO)[C@@H](N)[C@H]1O [PAN, puromycin aminonucleoside]
Body Weight ([1]; 0 wks of treatment (baseline)): 293 ± 4 g
Creatinine Excretion ([1]; 0 wks of treatment (baseline)): 14.9 ± 2.5 mg/day
FE - K+ (fractional excretion of potassium) ([1]; 0 wks of treatment (baseline)): 10.5 ± 0.7%
FE - Na+ (fractional excretion of sodium) ([1]; 0 wks of treatment (baseline)): 0.13 ± 0.01%
Fluid Intake ([1]; 0 wks of treatment (baseline)): 5.33 ± 0.37 mL/h/kg
Food Intake ([1]; 0 wks of treatment (baseline)): 75 ± 2 g/kg/day
Plasma Cholesterol ([1]; 0 wks of treatment (baseline)): 53.6 ± 2.3 mg/dL
Potassium Excretion ([1]; 0 wks of treatment (baseline)): 10.9 ± 0.72 mEq/day/kg
Sodium Excretion ([1]; 0 wks of treatment (baseline)): 4.48 ± 0.95 mEq/day/kg
Urine Volume ([1]; 0 wks of treatment (baseline)): 1.78 ± 0.275 mL/h/kg
Body Weight ([1]; 3 wks of treatment): 313 ± 1 g
Creatinine Excretion ([1]; 3 wks of treatment): 11.1 ± 1.1 mg/day
FE - K+ (fractional excretion of potassium) ([1]; 3 wks of treatment): 27.3 ± 3.7 %
FE - Na+ (fractional excretion of sodium) ([1]; 3 wks of treatment): 0.37 ± 0.06%
Fluid Intake ([1]; 3 wks of treatment): 7.58 ± 0.667 mL/h/kg
Food Intake ([1]; 3 wks of treatment): 74 ± 4 g/kg/day
Plasma Cholesterol ([1]; 3 wks of treatment): 353 ± 39.4 mg/dL
Potassium Excretion ([1]; 3 wks of treatment): 10.7 ± 0.82 mEq/day/kg
Sodium Excretion ([1]; 3 wks of treatment): 3.80 ± 0.58 mEq/day/kg
Urine Volume ([1]; 3 wks of treatment): 4.192 ± 0.462 mL/h/kg
Body Weight ([1]; 6 wks of treatment): 337 ± 15 g
Creatinine Excretion ([1]; 6 wks of treatment): 8.8 ± 0.9 mg/day
FE - K+ (fractional excretion of potassium) ([1]; 6 wks of treatment): 30.1 ± 4.6 %
FE - Na+ (fractional excretion of sodium) ([1]; 6 wks of treatment): 0.71 ± 0.13 %
Fluid Intake ([1]; 6 wks of treatment): 6.92 ± 0.542 mL/h/kg
Food Intake ([1]; 6 wks of treatment): 69 ± 3 g/kg/day
Plasma Cholesterol ([1]; 6 wks of treatment): 283.5 ± 39.5 mg/dL
Potassium Excretion ([1]; 6 wks of treatment): 8.39 ± 0.61 mEq/day/kg
Sodium Excretion ([1]; 6 wks of treatment): 3.92 ± 0.38 mEq/day/kg
Urine Volume ([1]; 6 wks of treatment): 3.9 ± 0.512 mL/h/kg
Body Weight ([1]; 11 wks of treatment): 382 ± 27 g
Creatinine Excretion ([1]; 11 wks of treatment): 18.7 ± 3.0 mg/day
FE - K+ (fractional excretion of potassium) ([1]; 11 wks of treatment): 47.1 ± 7.7 %
FE - Na+ (fractional excretion of sodium) ([1]; 11 wks of treatment): 1.18 ± 0.35 %
Fluid Intake ([1]; 11 wks of treatment): 6.62 ± 0.708 mL/h/kg
Food Intake ([1]; 11 wks of treatment): 53 ± 5 g/kg/day
Plasma Cholesterol ([1]; 11 wks of treatment): 349.6 ± 43.0 mg/dL
Potassium Excretion ([1]; 11 wks of treatment): 9.63 ± 1.60 mEq/day/kg
Sodium Excretion ([1]; 11 wks of treatment): 4.18 ± 0.58 mEq/day/kg
Urine Volume ([1]; 11 wks of treatment): 4.712 ± 0.692 mL/h/kg
Creatinine clearance (in words, FIGS. 1B and 1C) ([1]; chronic treatment): reduced creatinine clearance
Plasma creatinine levels (in words, FIG. 1A) ([1]; chronic treatment): increased plasma creatinine levels
Urinary protein excretion (UPE; in words, FIG. 2A) ([1]; chronic treatment): induced severe proteinuria
Blood pressure (in words) [2]: increased blood pressure
GFR, inulin clearance (in words) [2]: decreased renal blood flow, renal plasma flow, hematocrit and glomerular filtration rate
Hematocrit [2]: 27 ± 2%
Left Kidney [2]: 2.10 ± 0.13 g
Glomerular Filtration Rate ([2]; 14C-inulin clearance): 0.21 ± 0.07 ml/min/g kidney
Body Weight ([2]; acute experiment): 368 ± 15
Mean Blood Pressure ([2]; anesthetized): 153.0 ± 6.1 mm Hg
Renal Blood Flow ([2]; anesthetized): 2.73 ± 0.24 ml/min/g kidney
Renal Plasma Flow ([2]; anesthetized): 2.00 ± 0.19 ml/min/g kidney
Renal Vascular Resistance ([2]; anesthetized): 63.6 ± 7.6 mm Hg/ml/min/g kid
Urine Volume ([2]; anesthetized): 4.43 ± 0.85 μl/min/g kidney
Plasma testosterone levels [3]: 0.92 ± 0.27 ng/mL
Labeling index of glomerular immunoreactive PCNA (in words, FIG. 3) [4]: markedly expanded
Number of ED1 positive cells in glomeruli and interstitium (in words, FIG. 4) [5]: several-fold increase in the number of ED1 positive cells
Glomerular collagen IV, labeling index (in words, FIGS. 5 and 6) [6]: significant increase in glomerular collagen IV content
Animals died during the treatment [7]: Six
